Literature values in paper PMC10721329, “Quisinostat is a brain-penetrant radiosensitizer in glioblastoma” (JCI Insight, 2023).

Conditions: human, in vivo; cited from earlier work

In the case of `Cc1[nH]c2ccccc2c1CCNCc1ccc(/C=C/C(=O)NO)cc1` [panobinostat], the “hematologic toxicities compared with QST” value is given as “far more common and severe (grade 3 and 4)”.
